According to ChEMBL document CHEMBL2040726, “The effects of aminoguanidine on retinopathy in STZ-induced diabetic rats” (Bioorg Med Chem Lett, 2012):
Active and inactive are the calls of the source. The calls are words filed in the database; no cut-off is given here.

What was measured:
Rattus norvegicus [1] = experiment: Toxicity in normal Sprague-Dawley rat assessed as effect on retinal endothelial cell count at 50 mg/kg/day administered with drinking water after 3 months by hematoxylin and eosin staining; format: organism-based; settings: in vivo
Rattus norvegicus [2] = experiment: Toxicity in normal Sprague-Dawley rat assessed as effect on retinal pericyte cell count at 50 mg/kg/day administered with drinking water after 6 months by hematoxylin and eosin staining; format: organism-based; settings: in vivo
Rattus norvegicus [3] = experiment: Effect on fasting blood glucose level in normal Sprague-Dawley rat 50 mg/kg/day administered with drinking water after 3 months (reference value: 5.68 +/- 0.96 mmol/L); format: functional
Rattus norvegicus [4] = experiment: Antiretinopathic activity in Sprague-Dawley rat streptozotocin-induced diabetic model assessed as reduction of retinal advanced glycated end products positive area at 50 mg/kg/day administered with drinking water after 3 months by immunohistochemistry analysis (reference value: 69.20 +/- 10.75%); format: functional; set-up: scale not given: the % may be the effect or the level left
Rattus norvegicus [5] = experiment: Antidiabetic activity in Sprague-Dawley rat streptozotocin-induced diabetic model assessed as reduction of body weight at 50 mg/kg/day administered with drinking water after 3 months (reference value: 206.00 +/- 52.59 g); format: functional
Rattus norvegicus [6] = experiment: Toxicity in normal Sprague-Dawley rat assessed as retinal advanced glycated end products positive area at 50 mg/kg/day administered with drinking water after 6 months by immunohistochemistry analysis (reference value: 0.75 +/- 0.94%); format: organism-based; settings: in vivo
Rattus norvegicus [7] = experiment: Toxicity in normal Sprague-Dawley rat assessed as effect on retinal endothelial cell count at 50 mg/kg/day administered with drinking water after 6 months by hematoxylin and eosin staining; format: organism-based; settings: in vivo
Rattus norvegicus [8] = experiment: Toxicity in normal Sprague-Dawley rat assessed as reduction of body weight at 50 mg/kg/day administered with drinking water after 3 months (reference value: 561.00 +/- 32.04 g); format: organism-based; settings: in vivo
Rattus norvegicus [9] = experiment: Antiretinopathic activity in Sprague-Dawley rat streptozotocin-induced diabetic model assessed as swollen of retinal pericyte mitochondria and endothelial cells at 50 mg/kg/day administered with drinking water after 6 months by transmission electron microscopic analysis; format: functional, organism-based; settings: Endothelial cell
Rattus norvegicus [10] = experiment: Toxicity in normal Sprague-Dawley rat assessed as effect on ratio of retinal endothelial cell count to pericyte cell count at 50 mg/kg/day administered with drinking water after 6 months by hematoxylin and eosin staining (reference value: 3.58 +/- 0.61); format: organism-based; settings: in vivo
Rattus norvegicus [11] = experiment: Effect on fasting blood glucose level in normal Sprague-Dawley rat 50 mg/kg/day administered with drinking water after 6 months (reference value: 5.51 +/- 1.06 mmol/L); format: functional
Rattus norvegicus [12] = experiment: Toxicity in normal Sprague-Dawley rat assessed as reduction of body weight at 50 mg/kg/day administered with drinking water after 6 months (reference value: 547.50 +/- 36.23 g); format: organism-based; settings: in vivo
Rattus norvegicus [13] = experiment: Toxicity in normal Sprague-Dawley rat assessed as retinal advanced glycated end products positive area at 50 mg/kg/day administered with drinking water after 3 months by immunohistochemistry analysis (reference value: 0.64 +/- 0.87%); format: organism-based; settings: in vivo
Rattus norvegicus [14] = experiment: Antiretinopathic activity in Sprague-Dawley rat streptozotocin-induced diabetic model assessed as effect on retinal endothelial cell count at 50 mg/kg/day administered with drinking water after 6 months by hematoxylin and eosin staining; format: functional, organism-based
Rattus norvegicus [15] = experiment: Antiretinopathic activity in Sprague-Dawley rat streptozotocin-induced diabetic model assessed as reduction of retinal advanced glycated end products positive area at 50 mg/kg/day administered with drinking water after 6 months by immunohistochemistry analysis (reference value: 78.70 +/- 7.11%); format: functional; set-up: scale not given: the % may be the effect or the level left
Rattus norvegicus [16] = experiment: Antiretinopathic activity in Sprague-Dawley rat streptozotocin-induced diabetic model assessed as effect on retinal endothelial cell count at 50 mg/kg/day administered with drinking water after 3 months by hematoxylin and eosin staining; format: functional, organism-based
Rattus norvegicus [17] = experiment: Antidiabetic activity in Sprague-Dawley rat streptozotocin-induced diabetic model assessed as reduction of fasting blood glucose level at 50 mg/kg/day administered with drinking water after 6 months (reference value: 20.20 +/- 5.51 mmol/L); format: functional
Rattus norvegicus [18] = experiment: Antiretinopathic activity in Sprague-Dawley rat streptozotocin-induced diabetic model assessed as increase of retinal electron density of basement membrane at 50 mg/kg/day administered with drinking water after 6 months by transmission electron microscopic analysis; format: functional, organism-based
Rattus norvegicus [19] = experiment: Antiretinopathic activity in Sprague-Dawley rat streptozotocin-induced diabetic model assessed as effect on retinal pericyte cell count at 50 mg/kg/day administered with drinking water after 6 months by hematoxylin and eosin staining; format: functional, organism-based
Rattus norvegicus [20] = experiment: Antiretinopathic activity in Sprague-Dawley rat streptozotocin-induced diabetic model assessed as effect on retinal pericyte cell count at 50 mg/kg/day administered with drinking water after 3 months by hematoxylin and eosin staining; format: functional, organism-based
Rattus norvegicus [21] = experiment: Antidiabetic activity in Sprague-Dawley rat streptozotocin-induced diabetic model assessed as reduction of body weight at 50 mg/kg/day administered with drinking water after 6 months (reference value: 254.50 +/- 123.03 g); format: functional
Rattus norvegicus [22] = experiment: Antiretinopathic activity in Sprague-Dawley rat streptozotocin-induced diabetic model assessed as ratio of retinal endothelial cell count to pericyte cell count at 50 mg/kg/day administered with drinking water after 6 months by hematoxylin and eosin staining (reference value: 10.91 +/- 3.34); format: functional
Rattus norvegicus [23] = experiment: Toxicity in normal Sprague-Dawley rat assessed as effect on retinal pericyte cell count at 50 mg/kg/day administered with drinking water after 3 months by hematoxylin and eosin staining; format: organism-based; settings: in vivo
Rattus norvegicus [24] = experiment: Antiretinopathic activity in Sprague-Dawley rat streptozotocin-induced diabetic model assessed as ratio of retinal endothelial cell count to pericyte cell count at 50 mg/kg/day administered with drinking water after 3 months by hematoxylin and eosin staining (reference value: 3.25 +/- 0.27); format: functional
Rattus norvegicus [25] = experiment: Antidiabetic activity in Sprague-Dawley rat streptozotocin-induced diabetic model assessed as reduction of fasting blood glucose level at 50 mg/kg/day administered with drinking water after 3 months (reference value: 20.99 +/- 4.13 mmol/L); format: functional
Rattus norvegicus [26] = experiment: Toxicity in normal Sprague-Dawley rat assessed as effect on ratio of retinal endothelial cell count to pericyte cell count at 50 mg/kg/day administered with drinking water after 3 months by hematoxylin and eosin staining (reference value: 2.89 +/- 0.76); format: organism-based; settings: in vivo

N=C(N)NN [PIMAGEDINE]
Activity (Rattus norvegicus [1]): Non-toxic | Activity (Rattus norvegicus [2]): Non-toxic | Activity (Rattus norvegicus [3]): 5.23 mmol/L | Activity (Rattus norvegicus [4]): 12.71% | Activity (Rattus norvegicus [5]): 219.5 g | Activity (Rattus norvegicus [6]): 3.27% | Activity (Rattus norvegicus [7]): Non-toxic | Activity (Rattus norvegicus [8]): 536.5 g | Activity (Rattus norvegicus [9]): Active | Ratio (Rattus norvegicus [10]): 3.46 | Activity (Rattus norvegicus [11]): 5.07 mmol/L | Activity (Rattus norvegicus [12]): 553 g | Activity (Rattus norvegicus [13]): 1.33% | Activity (Rattus norvegicus [14]): inactive | Activity (Rattus norvegicus [15]): 9.16% | Activity (Rattus norvegicus [16]): inactive | Activity (Rattus norvegicus [17]): 21.74 mmol/L | Activity (Rattus norvegicus [18]): inactive | Activity (Rattus norvegicus [19]): inactive | Activity (Rattus norvegicus [20]): inactive | Activity (Rattus norvegicus [21]): 284.5 g | Ratio (Rattus norvegicus [22]): 3.71 | Activity (Rattus norvegicus [23]): Non-toxic | Ratio (Rattus norvegicus [24]): 3.06 | Activity (Rattus norvegicus [25]): 21.89 mmol/L | Ratio (Rattus norvegicus [26]): 2.95
